Measurements taken from ChEMBL document CHEMBL1201862, “PubChem BioAssay data set” (2004).
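Following 48 hours of exposure in 96-well plates, responses at five concentrations were used to interpolate endpoints linearly. GI50 marks 50% less growth.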 The source made the active and inactive calls. No stated cut-off is given here; in the data, active = GI50 up to about 1.1 µM and inactive = higher.

Columns and labels:
Experiment in all cases: DTP human tumour cell line panel, 48 h
A549 = system: A549
ACHN = system: ACHN
EKVX = system: EKVX
HCT-116 = system: HCT-116
HOP-92 = system: HOP-92
KM12 = system: KM12
MCF7 = system: MCF7
MDA-N = system: MDA-N
MOLT-4 = system: MOLT-4
Malme-3M = system: Malme-3M
NCI-H226 = system: NCI-H226
NCI-H23 = system: NCI-H23
SF-539 = system: SF-539
SK-MEL-5 = system: SK-MEL-5
SN12C = system: SN12C
SNB-75 = system: SNB-75
T47D = system: T47D
UACC-257 = system: UACC-257
TK-10 = system: TK-10
HCC 2998 = system: HCC 2998

Measured: GI50

CC(NC(=O)C(C)C(=O)NCc1ccc(C(F)(F)F)cc1)C(N)=O (stereo not given)
inactive: A549 > 100 µM | ACHN > 100 µM | EKVX > 100 µM | HCT-116 > 100 µM | HOP-92 > 100 µM | KM12 > 100 µM | MCF7 > 100 µM | MDA-N > 100 µM | MOLT-4 > 100 µM | Malme-3M 27.9 µM | NCI-H226 > 100 µM | NCI-H23 > 100 µM | SF-539 > 100 µM | SK-MEL-5 > 100 µM | SN12C > 100 µM | SNB-75 48.1 µM | T47D > 100 µM | UACC-257 > 100 µM

COC(=O)/C=C(\C(=O)OC)C1C(=O)Oc2c(C)c(=O)c3ccccc3n21 (stereo not given)
inactive: A549 > 100 µM | EKVX > 100 µM | HCT-116 > 100 µM | KM12 > 100 µM | MCF7 > 100 µM | MDA-N > 100 µM | MOLT-4 > 100 µM | Malme-3M > 100 µM | NCI-H226 > 100 µM | NCI-H23 > 100 µM | SF-539 > 100 µM | SK-MEL-5 > 100 µM | SN12C > 100 µM | SNB-75 > 100 µM | T47D > 100 µM | TK-10 > 100 µM | UACC-257 > 100 µM

NC1OC(COC(=O)c2ccccc2)C(O)C(OC(=O)c2ccccc2)C1OC(=O)c1ccccc1 (stereo not given)
inactive: A549 19.1 µM | ACHN 19.3 µM | EKVX 21.3 µM | HCT-116 18.8 µM | HOP-92 35.2 µM | MCF7 23.9 µM | MDA-N 22.3 µM | MOLT-4 14.7 µM | Malme-3M 16.7 µM | NCI-H226 20.8 µM | NCI-H23 25.4 µM | SK-MEL-5 14.4 µM | SN12C 24.3 µM | SNB-75 18.6 µM | T47D 35.5 µM | TK-10 61.9 µM | UACC-257 18.1 µM

Cc1cc(S(=O)(=O)Nc2nc3ccsc3c(=O)n2N)c(S)cc1Cl
inactive: A549 > 100 µM | ACHN 56.9 µM | EKVX > 100 µM | HCC 2998 > 100 µM | HCT-116 94.8 µM | KM12 80.7 µM | MCF7 > 100 µM | MDA-N > 100 µM | MOLT-4 64.3 µM | Malme-3M 81.1 µM | NCI-H226 34.6 µM | NCI-H23 > 100 µM | SF-539 > 100 µM | SK-MEL-5 56.9 µM | SN12C > 100 µM | SNB-75 > 100 µM | TK-10 > 100 µM | UACC-257 > 100 µM
